Target: PIK3CG (human) (UniProt P48736)
Experiment: Inhibition of PIK3CG Kinase Activity

PIK3CG (human), sequence (P48736 whole entry, looked up): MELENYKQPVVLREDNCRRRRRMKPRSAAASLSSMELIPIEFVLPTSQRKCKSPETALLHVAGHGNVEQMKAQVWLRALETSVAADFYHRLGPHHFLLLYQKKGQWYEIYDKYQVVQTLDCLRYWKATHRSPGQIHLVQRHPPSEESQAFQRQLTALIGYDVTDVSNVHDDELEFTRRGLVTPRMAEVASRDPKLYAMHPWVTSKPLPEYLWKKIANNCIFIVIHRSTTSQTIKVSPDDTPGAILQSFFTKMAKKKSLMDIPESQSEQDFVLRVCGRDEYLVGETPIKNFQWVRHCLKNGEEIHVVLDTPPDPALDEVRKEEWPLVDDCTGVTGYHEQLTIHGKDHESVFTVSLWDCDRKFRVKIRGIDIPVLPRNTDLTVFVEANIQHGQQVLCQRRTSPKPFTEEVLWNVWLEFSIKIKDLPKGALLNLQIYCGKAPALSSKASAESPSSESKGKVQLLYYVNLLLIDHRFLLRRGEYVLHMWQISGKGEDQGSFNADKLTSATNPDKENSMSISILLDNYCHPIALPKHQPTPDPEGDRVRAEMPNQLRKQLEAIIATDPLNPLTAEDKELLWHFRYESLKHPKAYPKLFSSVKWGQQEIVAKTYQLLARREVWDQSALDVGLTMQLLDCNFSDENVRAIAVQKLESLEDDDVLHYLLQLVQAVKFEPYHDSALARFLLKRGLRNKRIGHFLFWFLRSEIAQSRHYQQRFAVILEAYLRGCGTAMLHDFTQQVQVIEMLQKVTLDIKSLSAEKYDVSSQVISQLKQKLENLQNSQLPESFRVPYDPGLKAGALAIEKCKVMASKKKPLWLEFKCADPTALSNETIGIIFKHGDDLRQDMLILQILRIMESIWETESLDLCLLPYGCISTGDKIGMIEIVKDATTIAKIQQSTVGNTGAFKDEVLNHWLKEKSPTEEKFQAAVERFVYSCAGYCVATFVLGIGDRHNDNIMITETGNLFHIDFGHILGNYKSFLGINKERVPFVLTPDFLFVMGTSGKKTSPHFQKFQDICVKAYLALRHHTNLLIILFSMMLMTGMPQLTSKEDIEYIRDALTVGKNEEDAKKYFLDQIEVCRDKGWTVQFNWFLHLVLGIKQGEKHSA

IC50 [µM] | Compound
< 10 | CC(C)(NS(=O)(=O)c1cncc(-c2ccc3nc(N)nn3c2)c1)c1ccccc1
< 10 | Nc1nc2ccc(-c3cncc(S(=O)(=O)Nc4ccc(F)c(F)c4)c3)cn2n1
< 10 | Nc1nc2ccc(-c3cncc(NS(=O)(=O)c4ccc5ccccc5c4)c3)cn2n1
< 10 | Nc1nc2ccc(-c3cncc(S(=O)(=O)Cc4ccccc4)c3)cn2n1
< 10 | Nc1nc2ccc(-c3cncc(NS(=O)(=O)c4ccc(C(F)(F)F)cc4)c3)cn2n1
< 10 | CC(C)c1cccc(NS(=O)(=O)c2cncc(-c3ccc4nc(N)nn4c3)c2)c1
< 10 | Nc1nc2ccc(-c3cncc(NS(=O)(=O)c4cccc(OC(F)(F)F)c4)c3)cn2n1
< 10 | Nc1nc2ccc(-c3cncc(S(=O)(=O)N4CCC4)c3)cn2n1
< 10 | Nc1nc2ccc(-c3ccc(S(N)(=O)=O)cc3)cn2n1
< 10 | Nc1nc2ccc(-c3cncc(S(=O)(=O)N(Cc4ccccc4F)C4CC4)c3)cn2n1
< 10 | Nc1nc2ccc(-c3cncc(NS(=O)(=O)c4ccc(Cl)cc4)c3)cn2n1
< 10 | COc1ccc(NS(=O)(=O)c2cncc(-c3ccc4nc(N)nn4c3)c2)cc1
< 10 | Nc1nc2ccc(-c3cncc(S(=O)(=O)Nc4cccc(C(F)(F)F)c4)c3)cn2n1
< 10 | NCCNS(=O)(=O)c1cncc(-c2ccc3nc(N)nn3c2)c1
< 10 | Nc1nc2ccc(-c3cncc(S(=O)(=O)Nc4ccc(F)cc4F)c3)cn2n1
< 10 | CC(C)NS(=O)(=O)c1cncc(-c2ccc3nc(N)nn3c2)c1
< 10 | COc1cccc(NS(=O)(=O)c2cncc(-c3ccc4nc(N)nn4c3)c2)c1
< 10 | Nc1nc2ccc(-c3cncc(S(=O)(=O)Nc4cccc(OC(F)F)c4)c3)cn2n1
< 10 | CC(C)c1ccc(NS(=O)(=O)c2cncc(-c3ccc4nc(N)nn4c3)c2)cc1
< 10 | Nc1nc2ccc(-c3cncc(S(=O)(=O)N4Cc5ccccc5C4)c3)cn2n1
< 10 | Nc1nc2ccc(-c3cncc(S(=O)(=O)Nc4cc(F)cc(F)c4)c3)cn2n1

The remaining lines, values behind:

Compound | IC50 [µM]
Nc1nc2ccc(-c3ccc4c(c3)OCO4)cn2n1 | < 10
CC(C)(C)CS(=O)(=O)c1cncc(-c2ccc3nc(N)nn3c2)c1 | < 10
CCNc1cccc(-c2ccc3nc(N)nn3c2)c1 | < 10
Nc1nc2ccc(-c3cccc(S(=O)(=O)NCC(=O)O)c3)cn2n1 | < 10
Nc1nc2ccc(-c3cncc(S(=O)(=O)NCCCC(F)(F)F)c3)cn2n1 | < 10
CN(C)CCNS(=O)(=O)c1cccc(-c2ccc3nc(N)nn3c2)c1 | < 10
Nc1nc2ccc(-c3cccc(S(N)(=O)=O)c3)cn2n1 | < 10
Nc1nc2ccc(-c3cncc(S(=O)(=O)NC4CCC(O)CC4)c3)cn2n1 (stereo unspecified) | < 10
Nc1nc2ccc(-c3cncc(S(=O)(=O)NCC4CCOCC4)c3)cn2n1 | < 10
Nc1nc2ccc(-c3cncc(S(=O)(=O)N4CCCC4)c3)cn2n1 | < 10
Nc1nc2ccc(-c3cccc(Cl)c3)cn2n1 | < 10
N#Cc1cccc(-c2ccc3nc(N)nn3c2)c1 | < 10
Nc1nc2ccc(-c3cc[nH]n3)cn2n1 | < 10
Cc1cccc(-c2ccc3nc(N)nn3c2)c1 | < 10
Nc1nc2ccc(-c3cncc(SCc4ccccc4)c3)cn2n1 | < 10
CC(C)(CN1CCCC1)NS(=O)(=O)c1cncc(-c2ccc3nc(N)nn3c2)c1 | < 10
CCCNS(=O)(=O)c1cncc(-c2cc(F)c3nc(N)nn3c2)c1 | < 10
Nc1nc2ccc(-c3cncc(S(=O)(=O)NCC4CCCC4)c3)cn2n1 | < 10
CC(C)COc1cncc(-c2ccc3nc(N)nn3c2)c1 | < 10
CC(C)NS(=O)(=O)c1cncc(-c2cc(F)c3nc(N)nn3c2)c1 | < 10
Nc1nc2ccc(-c3cncc(S(=O)(=O)NCC4CCC4)c3)cn2n1 | < 10
COc1ccc(-c2ccc3nc(N)nn3c2)cc1O | < 10
COc1ccc(-c2cc(F)c3nc(N)nn3c2)cc1OC | < 10
CC(C)(C)NS(=O)(=O)c1cncc(-c2cc(F)c3nc(N)nn3c2)c1 | < 10
CCN(C)S(=O)(=O)c1cncc(-c2cc(F)c3nc(N)nn3c2)c1 | < 10
COc1cc(-c2ccc3nc(N)nn3c2)ccc1O | < 10
NCCNS(=O)(=O)c1cccc(-c2ccc3nc(N)nn3c2)c1 | < 10
COc1ccc(-c2cc(Cl)c3nc(N)nn3c2)cc1OC | < 10
Nc1nc2c(F)cc(-c3cncc(S(=O)(=O)N4CCC4)c3)cn2n1 | < 10
CC(=O)Nc1cccc(-c2ccc3nc(N)nn3c2)c1 | < 10
